According to ChEMBL document CHEMBL2331317, “Synthesis and structure-activity relationships for 1-(4-(piperidin-1-ylsulfonyl)phenyl)pyrrolidin-2-ones as novel non-carboxylate inhibitors of the aldo-keto reductase enzyme AKR1C3” (Eur J Med Chem, 2013):
Substitutions are numbered along the chain they refer to. Calls of active or inactive are those of the source. The calls are words filed in the database; no cut-off is given here.

Tests used:
[1] = target: T1, Aldo-keto reductase family 1 member C3 (Homo sapiens, UniProt P42330); assay: Inhibition of His-tagged human AKR1C3 expressed in Escherichia coli BL21 (DE3) assessed as inhibition of reduction of non-fluorescent ketone probe to fluorescent alcohol after 1 hr by competitive fluorescence assay
T1 sequence (P42330 whole entry): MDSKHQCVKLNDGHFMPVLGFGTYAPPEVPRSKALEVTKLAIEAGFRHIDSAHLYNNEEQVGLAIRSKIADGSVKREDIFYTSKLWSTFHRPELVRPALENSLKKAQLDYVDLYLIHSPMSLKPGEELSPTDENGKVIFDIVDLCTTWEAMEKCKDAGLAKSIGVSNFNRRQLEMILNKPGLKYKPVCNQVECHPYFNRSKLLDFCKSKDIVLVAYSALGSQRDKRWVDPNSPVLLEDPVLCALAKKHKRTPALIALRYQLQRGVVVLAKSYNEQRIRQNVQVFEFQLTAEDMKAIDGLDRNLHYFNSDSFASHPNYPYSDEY

[2] = target: T2, Aldo-keto reductase family 1 member C1 (Homo sapiens, UniProt Q04828); assay: Inhibition of His-tagged human AKR1C1 expressed in Escherichia coli BL21 (DE3) assessed as inhibition of reduction of non-fluorescent ketone probe to fluorescent alcohol after 1 hr by competitive fluorescence assay
T2 sequence (Q04828 whole entry): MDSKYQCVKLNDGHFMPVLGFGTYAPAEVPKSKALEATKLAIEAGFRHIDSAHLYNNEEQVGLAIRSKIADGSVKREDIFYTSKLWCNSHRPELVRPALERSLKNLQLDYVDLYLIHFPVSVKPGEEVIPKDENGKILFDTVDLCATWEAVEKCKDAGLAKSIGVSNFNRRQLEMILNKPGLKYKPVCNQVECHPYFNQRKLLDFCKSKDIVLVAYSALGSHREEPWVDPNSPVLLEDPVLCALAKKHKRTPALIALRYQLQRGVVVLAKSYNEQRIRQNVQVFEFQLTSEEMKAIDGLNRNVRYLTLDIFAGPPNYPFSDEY

[3] = target: T3, Aldo-keto reductase family 1 member C4 (Homo sapiens, UniProt P17516); assay: Inhibition of His-tagged human AKR1C4 expressed in Escherichia coli BL21 (DE3) assessed as inhibition of reduction of non-fluorescent ketone probe to fluorescent alcohol after 1 hr by competitive fluorescence assay
T3 sequence (P17516 whole entry): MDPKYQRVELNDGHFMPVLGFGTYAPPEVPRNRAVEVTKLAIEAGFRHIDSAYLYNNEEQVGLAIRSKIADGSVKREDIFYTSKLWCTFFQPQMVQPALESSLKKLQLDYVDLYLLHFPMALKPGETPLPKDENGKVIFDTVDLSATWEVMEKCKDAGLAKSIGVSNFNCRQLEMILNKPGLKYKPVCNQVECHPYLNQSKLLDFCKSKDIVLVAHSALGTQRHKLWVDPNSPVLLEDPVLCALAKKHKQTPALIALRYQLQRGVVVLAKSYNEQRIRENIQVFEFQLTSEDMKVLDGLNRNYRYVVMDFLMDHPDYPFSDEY

[4] = target: T4, Aldo-keto reductase family 1 member C2 (Homo sapiens, UniProt P52895); assay: Inhibition of His-tagged human AKR1C2 expressed in Escherichia coli BL21 (DE3) assessed as inhibition of reduction of non-fluorescent ketone probe to fluorescent alcohol after 1 hr by competitive fluorescence assay
T4 sequence (P52895 whole entry): T2 sequence (Q04828 whole entry) with T38V, R47H, L54V, C87S, V151M, R170H, Q172L

[5] = target: T5, Prostaglandin G/H synthase 2 (Homo sapiens) (UniProt P35354); assay: Inhibition of COX2 (unknown origin) at 10 uM
T5 sequence (whole entry): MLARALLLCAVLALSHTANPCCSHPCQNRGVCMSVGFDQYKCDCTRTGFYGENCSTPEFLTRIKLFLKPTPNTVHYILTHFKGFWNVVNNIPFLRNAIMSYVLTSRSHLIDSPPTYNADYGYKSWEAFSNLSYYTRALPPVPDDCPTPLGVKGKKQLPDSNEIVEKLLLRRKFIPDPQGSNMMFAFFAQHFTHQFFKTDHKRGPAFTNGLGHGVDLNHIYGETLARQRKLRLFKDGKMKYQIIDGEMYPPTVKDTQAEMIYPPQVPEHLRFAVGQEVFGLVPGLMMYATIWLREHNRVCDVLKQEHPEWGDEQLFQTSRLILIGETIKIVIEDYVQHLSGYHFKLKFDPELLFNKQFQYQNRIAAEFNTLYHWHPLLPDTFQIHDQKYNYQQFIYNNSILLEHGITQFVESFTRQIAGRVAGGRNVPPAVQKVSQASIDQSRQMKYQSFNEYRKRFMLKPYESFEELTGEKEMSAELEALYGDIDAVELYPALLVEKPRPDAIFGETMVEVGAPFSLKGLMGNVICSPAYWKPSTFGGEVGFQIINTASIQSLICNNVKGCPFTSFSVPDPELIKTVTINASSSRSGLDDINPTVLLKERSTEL

[6] = target: T6, Prostaglandin G/H synthase 1 (Homo sapiens, UniProt P23219); assay: Inhibition of COX1 (unknown origin) at 10 uM
T6 sequence (P23219 whole entry): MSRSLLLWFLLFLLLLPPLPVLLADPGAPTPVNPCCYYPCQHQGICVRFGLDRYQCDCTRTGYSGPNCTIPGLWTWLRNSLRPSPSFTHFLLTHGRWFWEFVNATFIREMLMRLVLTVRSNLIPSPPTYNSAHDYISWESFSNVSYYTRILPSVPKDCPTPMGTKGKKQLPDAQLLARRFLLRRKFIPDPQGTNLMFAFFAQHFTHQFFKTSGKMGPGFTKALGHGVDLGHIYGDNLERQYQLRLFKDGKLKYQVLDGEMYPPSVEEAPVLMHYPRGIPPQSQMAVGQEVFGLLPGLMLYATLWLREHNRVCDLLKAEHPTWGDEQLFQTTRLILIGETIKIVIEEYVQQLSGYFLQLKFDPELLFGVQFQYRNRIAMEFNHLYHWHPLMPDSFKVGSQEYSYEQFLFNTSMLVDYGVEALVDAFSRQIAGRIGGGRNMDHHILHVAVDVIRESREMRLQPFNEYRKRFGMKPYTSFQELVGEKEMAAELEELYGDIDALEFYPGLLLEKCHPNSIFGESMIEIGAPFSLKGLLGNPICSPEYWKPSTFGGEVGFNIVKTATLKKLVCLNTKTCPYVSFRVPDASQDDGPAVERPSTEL

[7] = target: T7, Prostaglandin G/H synthase 2 (Homo sapiens, UniProt P35354); assay: Inhibition of COX2 (unknown origin)
T7 sequence (P35354 whole entry): T5 sequence (whole entry)

[8] = target: T6, Prostaglandin G/H synthase 1; assay: Inhibition of COX1 (unknown origin)
[9] = target: T1, Aldo-keto reductase family 1 member C3; assay: Inhibition of recombinant AKR1C3 (unknown origin) overexpressed in human HCT116 cells assessed as inhibition of aerobic reduction of dinitrobenzamide PR-104A to its hydroxylamine metabolite by LC-MS/MS assay; type: cell-based, HCT-116
[10] = target: T3, Aldo-keto reductase family 1 member C4; assay: Inhibition of AKR1C4 (unknown origin)
[11] = target: T2, Aldo-keto reductase family 1 member C1; assay: Inhibition of AKR1C1 (unknown origin)

| SMILES | IC50 [1] [µM] | IC50 [2] [µM] | IC50 [3] [µM] | IC50 [4] [µM] | further results |
| --- | --- | --- | --- | --- | --- |
| Cc1cc(S(=O)(=O)N2CCCCC2C)ccc1N1CCCC1=O (stereo unspecified) | 10.2 | – | – | – | – |
| C[C@@H]1CCCCN1S(=O)(=O)c1ccc(N2CCCC2=O)cc1 | – | > 30 | > 30 | > 30 | – |
| Cc1cc(S(=O)(=O)N2CCCCC2C)c(C)cc1N1CCCC1=O (stereo unspecified) | > 30 | – | – | – | – |
| CC1CCCCN1S(=O)(=O)c1ccc(N2CCCC2=O)cn1 (stereo unspecified) | 2.77 | > 30 | > 30 | > 30 | – |
| O=C1CCCN1c1ccc(S(=O)(=O)N2CCCCC2)cc1 | 0.14 | > 30 | > 30 | > 30 | inhibition [5]: inactive; inhibition [6]: inactive |
| Cc1ccc(Cl)c(Nc2ccccc2C(=O)O)c1Cl [MECLOFENAMIC ACID] | – | – | – | – | IC50 [7]: 0.7 µM; IC50 [8]: 0.22 µM |
| CC1CCCCN1S(=O)(=O)c1cccc(N2CCCC2=O)c1 (stereo unspecified) | > 30 | – | – | – | – |
| C[C@H]1CCC[C@H](C)N1S(=O)(=O)c1ccc(N2CCCC2=O)cc1 | 0.056 | > 30 | > 30 | > 30 | IC50 [9]: 0.022 µM |
| CC1CCCCN1Cc1ccc(N2CCCC2=O)cc1 (stereo unspecified) | > 30 | – | – | – | – |
| CC1CCCCN1S(=O)(=O)c1ccc(N2C(=O)c3ccccc3C2=O)cc1 (stereo unspecified) | > 30 | – | – | – | – |
| O=C1CCCN1c1ccc(S(=O)(=O)N2CCC[C@@H](O)C2)cc1 | 1.55 | > 30 | > 30 | > 30 | – |
| Cc1cccc(Nc2ccccc2C(=O)O)c1C [MEFENAMIC ACID] | – | – | – | – | IC50 [7]: 2.9 µM; IC50 [8]: 25 µM; IC50 [10]: > 100 µM; IC50 [11]: 3.91 µM |
| CC1CCCCN1S(=O)(=O)c1ccc(N2CCC2=O)cc1 (stereo unspecified) | 5.61 | > 30 | > 30 | > 30 | – |
| O=C1CCCN1c1ccc(S(=O)(=O)N2CCOCC2)cc1 | > 30 | – | – | – | – |
| CC1CCCCN1S(=O)(=O)c1ccc(N2CCCCC2=O)cc1 (stereo unspecified) | 3.77 | > 30 | > 30 | > 30 | – |
| CC1CCN(S(=O)(=O)c2ccc(N3CCCC3=O)cc2)CC1 | 0.2 | > 30 | > 30 | > 30 | – |
| CC(C)C(=O)Nc1ccc(S(=O)(=O)N2CCCCC2C)cc1 (stereo unspecified) | 12.5 | – | – | – | – |
| CC1CCCCN1S(=O)(=O)c1ccc(N2CCCS2(=O)=O)cc1 (stereo unspecified) | 5.22 | > 30 | > 30 | > 30 | – |
| CC1CCCCN1S(=O)(=O)c1ccc(N2CCCC2=O)cc1 (racemic) | – | > 30 | > 30 | > 30 | inhibition [5]: inactive; inhibition [6]: inactive |
| O=C1CCCN1c1ccc(S(=O)(=O)N2CCc3ccccc3C2)cc1 | 0.052 | – | – | – | – |
| C[C@@H]1CN(S(=O)(=O)c2ccc(N3CCCC3=O)cc2)C[C@H](C)N1 | 21.2 | – | – | – | – |
| CC1CCCCN1S(=O)(=O)c1ccc(N2C(=O)CCC2=O)cc1 (stereo unspecified) | > 30 | – | – | – | – |
| O=C1CCCN1c1ccc(S(=O)(=O)N2CCCC2)cc1 | > 30 | – | – | – | – |
| CC1CCCCN1S(=O)(=O)c1ccccc1N1CCCC1=O (stereo unspecified) | > 30 | – | – | – | – |
| CC1CCCCN1S(=O)(=O)c1ccc(NC(=O)C(C)(C)C)cc1 (stereo unspecified) | 5.94 | > 30 | > 30 | > 30 | – |
| O=C(O)c1ccccc1Nc1cccc(C(F)(F)F)c1 [FLUFENAMIC ACID] | – | – | – | – | IC50 [8]: 3 µM |
| O=C1CCCN1c1ccc(S(=O)(=O)N2CCC[C@H](O)C2)cc1 | 8.98 | > 30 | > 30 | > 30 | – |
| CC1CCCN(S(=O)(=O)c2ccc(N3CCCC3=O)cc2)C1 (stereo unspecified) | 0.084 | > 30 | > 30 | > 30 | IC50 [9]: 0.015 µM |
| CC1CCCCN1C(=O)c1ccc(N2CCCC2=O)cc1 (stereo unspecified) | > 30 | – | – | – | – |
